Patent US8901116B2, “Method for treating pain, anxiety or depression using carbamoyloxy alkanoyl piperazine compound” (SK Biopharmaceuticals Co., Ltd., priority 2007, dated 2014)

What was measured:
Assay type in all cases: in vivo
male ICR mouse [1] = test: Head twitch potentiation induced by 5-HTP (5-HTP potentiation test) in mouse; conditions: po, 0.5 h, p.o, 5-HTP 80 mg/kg + Carbidopa 25 mg/kg i.p. 30 minutes after dosing, head twitches counted for 2 minutes, negative = 5-HT2A antagonist, read-out: 5-HTP Potentiation Increase rate in Head Twitch No.
Procedure, shortened: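 Male ICR mice (20-25 g) dosed orally at 30 mg/kg; 30 min later given 5-HTP (80 mg/kg) plus carbidopa (25 mg/kg) i.p. Head twitches counted for 2 min starting 30 min after i.p. dosing; effect expressed as % increase in twitch number versus vehicle group.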

male ICR mouse [2] = test: Hot plate test in mouse; conditions: po, p.o, 1 hour after dosing, hot plate 55° C., read-out: Hot Plate Test Increase in latency of avoidance response
Procedure, shortened: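 Male ICR mice (25–30 g) dosed orally at 30 mg/kg and placed on a 55° C. hot plate 1 h later. Latency to forefoot or hind-leg avoidance (flinching, licking, jumping) recorded; effect expressed as % increase in latency over vehicle group.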

male ICR mouse [3] = test: Elevated plus maze (EPM) test in mouse; conditions: po, p.o, 1 hour after dosing, 5 minutes observation, read-out: Elevated Plus Maze Change index in Open-Arm Time
Procedure, shortened: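 Male ICR mice (20–25 g) received test material orally at 10 mg/kg, and open-arm time on the maze was recorded over 5 min starting 1 h after dosing. Value is the change index in open-arm time: (treated − vehicle)/vehicle × 100%.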

male ICR mouse [4] = test: Acetic acid-induced writhing test in mouse; conditions: po, p.o, acetic acid i.p. 1 hour after dosing, writhing counted for 10 minutes, read-out: Writhing Test Suppression of pain response
Procedure, shortened: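 Test material given orally at 10 mg/kg to male mice (30–35 g); 1 h later 0.8% acetic acid injected i.p. Writhes counted over 10 min immediately afterwards; analgesia expressed as percent suppression of writhing versus vehicle group.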

Structure (SMILES)	change in vivo at 30 mg/kg (male ICR mouse [1]) [%]	change in vivo at 30 mg/kg (male ICR mouse [2]) [%]	change in vivo at 10 mg/kg (male ICR mouse [3]) [%]	inhibition in vivo at 10 mg/kg (male ICR mouse [4]) [%]
NC(=O)OC(CC(=O)N1CCN(c2ccccc2)CC1)c1ccc(F)c(F)c1 (stereo not drawn) [Example 60, carbamic acid 1-(3,4-difluoro-phenyl)-3-oxo-3-(4-phenyl-piperazin-1-yl)-propyl ester]	-23.5	17.2	21.3	28
NC(=O)OC1c2ccccc2CCC1C(=O)N1CCN(c2ccccc2)CC1 (stereo not drawn) [Example 52, carbamic acid-2-(4-phenyl-piperazine-1-carbonyl)-1,2,3,4-tetrahydro-naphthalene-1-yl ester]	40	20.5	14.6	26.8
NC(=O)OC(CC(=O)N1CCN(c2ccccc2F)CC1)c1ccccc1 (stereo not drawn) [Example 29, carbamic acid 3-[4-(2-fluoro-phenyl)-piperazin-1-yl]-3-oxo-1-phenyl-propyl ester]	14.3	0	92.3	34.5
